Like-named read-outs stand apart in the source and are kept apart here.
Tests used:
DNMT1 [1] = target: T1, DNMT1 (Homo sapiens, UniProt P26358); assay: Selective depletion of DNMT1 by Western blot in treated HCT116 cells; format: cell-based; set-up: Protein extracts (equivalent to 100 μg) were isolated from HCT116 cells; endogenous in cells; host or cells: HCT116; conditions: for % DNMT1 protein level remaining at 5 µM: HCT-116, 5 μM; for % DNMT1 protein level remaining at 10 µM: HCT-116, 10 μM; for % DNMT1 protein level remaining at 100 µM: HCT-116, 100 μM
Source text: Biol. 2005, 11, 4727-41.]. For DNMT1, commercially available antibodies from Santa Cruz or New England Biolabs were used.
Target sequence in this assay (P26358 whole entry): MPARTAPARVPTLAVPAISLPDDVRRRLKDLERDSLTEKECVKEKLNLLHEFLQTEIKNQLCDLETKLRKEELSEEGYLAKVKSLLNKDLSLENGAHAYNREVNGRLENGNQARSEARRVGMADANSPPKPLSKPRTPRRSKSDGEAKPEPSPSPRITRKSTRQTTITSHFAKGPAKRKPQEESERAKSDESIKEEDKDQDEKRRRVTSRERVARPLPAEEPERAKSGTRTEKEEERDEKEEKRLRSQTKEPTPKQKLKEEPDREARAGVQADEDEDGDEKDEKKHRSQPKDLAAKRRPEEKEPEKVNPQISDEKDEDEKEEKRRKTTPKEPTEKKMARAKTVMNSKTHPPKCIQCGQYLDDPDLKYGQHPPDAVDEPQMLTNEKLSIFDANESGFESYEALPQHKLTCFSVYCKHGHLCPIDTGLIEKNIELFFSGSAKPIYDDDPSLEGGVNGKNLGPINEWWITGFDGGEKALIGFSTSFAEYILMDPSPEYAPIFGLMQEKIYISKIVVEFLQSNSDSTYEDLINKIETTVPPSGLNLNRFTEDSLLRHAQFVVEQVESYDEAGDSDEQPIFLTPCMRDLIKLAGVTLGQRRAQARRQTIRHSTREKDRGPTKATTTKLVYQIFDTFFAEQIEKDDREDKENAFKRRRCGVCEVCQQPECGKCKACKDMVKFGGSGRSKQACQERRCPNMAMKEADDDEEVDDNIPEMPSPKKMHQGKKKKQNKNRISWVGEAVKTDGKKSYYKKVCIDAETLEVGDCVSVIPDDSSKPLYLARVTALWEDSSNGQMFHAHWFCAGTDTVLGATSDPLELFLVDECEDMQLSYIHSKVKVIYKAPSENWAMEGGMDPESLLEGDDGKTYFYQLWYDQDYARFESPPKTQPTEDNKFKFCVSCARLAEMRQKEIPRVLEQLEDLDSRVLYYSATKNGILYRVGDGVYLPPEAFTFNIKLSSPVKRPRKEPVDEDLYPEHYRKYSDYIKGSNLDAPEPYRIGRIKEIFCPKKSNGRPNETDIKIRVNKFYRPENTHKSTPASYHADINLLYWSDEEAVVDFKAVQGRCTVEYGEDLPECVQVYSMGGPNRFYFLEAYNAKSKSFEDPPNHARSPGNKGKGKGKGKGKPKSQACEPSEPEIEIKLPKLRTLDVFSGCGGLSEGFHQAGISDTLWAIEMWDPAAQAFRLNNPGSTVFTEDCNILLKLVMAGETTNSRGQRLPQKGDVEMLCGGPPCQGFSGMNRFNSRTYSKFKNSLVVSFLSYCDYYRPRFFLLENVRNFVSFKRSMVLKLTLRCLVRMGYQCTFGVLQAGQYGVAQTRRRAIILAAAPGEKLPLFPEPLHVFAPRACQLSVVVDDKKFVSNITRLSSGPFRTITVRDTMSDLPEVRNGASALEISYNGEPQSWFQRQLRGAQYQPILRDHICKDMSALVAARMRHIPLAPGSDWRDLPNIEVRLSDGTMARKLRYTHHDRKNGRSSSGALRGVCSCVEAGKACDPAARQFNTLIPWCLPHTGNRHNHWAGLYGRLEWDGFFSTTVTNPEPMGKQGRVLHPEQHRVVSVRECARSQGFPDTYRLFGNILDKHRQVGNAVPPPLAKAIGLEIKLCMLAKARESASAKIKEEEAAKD

CMV-EE210 cell line = assay: Toxicity (TD50, cell viability) reported with the GFP assay; conditions: for TD50: Dose at which cells are >50% viable
Experimental: (§1) The demethylating activity of non-bis-quaternary 4-anilinoquinolines were tested in a cell-based GFP (green fluorescent protein) assay. This assay has a GFP gene regulated by the CMV promoter and is sensitive to the methylation of CpG sites within the promoter. A decrease in methylation resulting from exposure to a methylation inhibitor leads to GFP expression and is readily scored. Specifically, the CMV-EE210 cell line containing the epigenetically silenced GFP transgene was used to assay for reactivation of GFP expression by flow cytometry. CMV-EE210 was made by transfecting NIH 3T3 cells with the pTR-UF/UF1/UF2 plasmid (Zolotuhin et al., 1996), which is comprised of pBS(+) (Stratagene, Inc.) containing a cytomegalovirus (CMV) promoter driving a humanized GFP gene adapted for expression in mammalian cells. After transfection, high-level GFP expressing cells were initially selected by FACS analysis and sorting using a MoFlo cytometer (Cytomation, Inc.). […] To screen for reactivation of CMV-EE210, decitabine (at […]) or a test compound (at a concentration of 30-50 μM) was added to complete medium (phenol red free DMEM (Gibco, Life Technologies) supplemented with 10% fetal bovine serum (Hyclone)). Cells were then seeded to 30% confluence (˜5000 cell/well) in 96 well plate containing the test compounds and grown for three days in at 37° C. in 5% CO2. The plates were examined under a fluorescent microscope using a 450-490 excitation filter (13 filter cube, Leica, Deerfield Ill.). Wells were scored g1 positive if 10% of viable cells express GFP, g2 positive if 30% of viable cells express GFP and g3 if greater than 75% of the viable cells express GFP. GFP IC 50 is the concentration of an inhibitor that (like an IC50) is the dose at which the GFP expression level goes from g3 to g1/2.

[2] = tested on: CMV-EE210 cell line containing the epigenetically silenced GFP transgene; assay: Cell-based GFP assay for demethylating activity (reactivation of silenced GFP transgene); conditions: for IC50: read-out: GFP IC50
Experimental: as §1

DNMT1 [3] = target: T1, DNMT1; assay: DNMT1 Inhibition Assay (Epigentek DNMT1 Activity/Inhibition kit); format: biochemical; conditions: 100 μM SAM, 2.2 μg/ml DNMT1 enzyme
Experimental: The DNMT1 Activity/Inhibition kit from Epigentek Inc. (Brooklyn, N.Y.) was used in this experiment (Catalog No. P-3006). In general terms, this assay utilizes an active DNMT1 enzyme incubated with S-adenosylmethionine (SAM) in 96-well plates upon which unmethylated DNA has been immobilized onto the surface of each well. After incubation the reaction wells are washed and probed with a primary anti-methylcytosine antibody, which will bind to methylated DNA. A secondary antibody is then used to detect the primary antibody and creates a signal that is proportional to the amount of methylated DNA in the well. Uninhibited DNMT1 produces a well with high levels of methylated DNA (high signal), whereas inhibited DNMT1 produces a well with low levels of methylation (low signal). The final concentrations of reagents used in this DNMT1 assay were as follows: 100 μM SAM and 2.2 μg/ml DNMT1 enzyme, with inhibitor concentrations typically ranging from 100 μM to 0.781 μM.
More specifically, test compounds were resuspended in 100% DMSO at 3 mM and serially diluted 1:2 in DMSO 8 times. A volume of 100 μl of 1× assay buffer was combined with 12 μl of 1 mM SAM solution and 4 μl of 66.7 μg/mL DNMT1 enzyme in the presence of 4 μl of test compound diluted in DMSO. Controls include enzyme only (no inhibitor, but containing 3.3% DMSO), no enzyme, and compounds having inhibitory activity. A volume of 30 μl of the mixed solution was then added to the substrate-coated wells in triplicate and incubated at 37° C. for 2 hours. Reaction wells are then washed 3× with 150 μl of DNMT wash buffer. The primary antibody (anti-methylcytosine) was diluted 1:1000 in wash buffer, added to each well (50 μl) and incubated at room temperature for 1 hour. Reaction wells were washed again. The secondary antibody was diluted 1:1000 in wash buffer, added to each well (50 μl) and incubated at room temperature for 30 min. The wells were washed for the last time. […] The stop solution was added (50 μl) and the plate was immediately read on a plate reader at 450 nm absorbance. […]
Target sequence in this assay (P26358 whole entry, species assumed): as the sequence (P26358 whole entry) above

p16 = assay: RT-PCR assay for gene expression (p16) in RKO and HCT-116 cells; format: cell-based; conditions: FIG. 1, varying concentrations, forty eight hour incubation
Experimental: RKO and HCT-116 cells were treated with Cpd. AAA, Cpd. BBB, and Cpd. CCC at varying concentrations. After a forty eight hour incubation cells were harvested for RNA isolation using the Qiagen RNeasy Mini kit. RNA was quantified using a spectrophotometer and 1 μg of RNA was used for cDNA synthesis using the Bio-Rad iScript cDNA Synthesis Kit. RTPCR was performed using SYBER GreenER qPCR SuperMix for iCycler according to the manufacturer's protocol. Primer sequences used are as follows [NT] (SEQ ID NO: 2) and [NT] (SEQ ID NO: 3), MLH-1 [NT] (SEQ ID NO: 4) and [NT] (SEQ ID NO:5), [NT] (SEQ ID NO: 6) and [NT] (SEQ ID NO: 7), GAPDH [NT] (SEQ ID NO:8) and [NT] (SEQ ID NO:9), and […] (SEQ ID NO: 10) and [NT] (SEQ ID NO:11). Samples were analyzed on the iQ5 Multicolor Real-Time PCR Detection System from Bio-Rad. Data analysis was performed using the iQ5 Optical System Software version 2.0, Threshold Cycle (CT) and CT mean values were determined from this software. For each sample there are at least four reactions, two for p16 and two for GAPDH the housekeeping control. The mean CT value from the GAPDH reactions was subtracted from each of the corresponding p16 samples CT giving a value termed Delta CT. Then the Delta CT for the untreated p16 sample is subtracted from all treated Delta CT values giving another value termed Delta Delta CT. […] The duplicate samples are averaged together to get an average Relative Expression for each treatment and the Standard Error is calculated. Relative expression values for p15 and MLH-1 were calculated using the same method. […] AAA, Cpd. BBB, and Cpd. […] Cpd. […] Because the higher levels of p16 seemed to have less effect in causing re-expression of p16 there may be some issues with drug solubility or toxicity at the higher concentrations tested.

RKO = assay: Cell-based growth assay (Cell-Titer-Glo), RKO; conditions: Homo sapiens, 96 hours, read-out: IC50 Values CTG
Experimental: Cell culture-based assays can be used to evaluate the ability of compounds of the invention to inhibit one or more cellular activities, such as cancer cell growth and/or survival. Numerous cancer cell lines can be obtained from the American Type Culture Collection (ATCC) and other sources. Briefly, cells are seeded into 96-well, tissue-culture treated, opaque white plates (Thermo Electron, Vantaa, Finland), at between 5000 and 10000 cells per well, depending on the speed of cell proliferation, in 100 μl of appropriate growth medium (determined by the ATCC). Cells are then exposed to the appropriate concentration of drug or an equal amount of DMSO (drug diluent) and allowed to grow in its presence for 96 hours. Following this, 100 μl of Cell-Titer-Glo (CTG) reagent (Promega, Inc., Madison, Wis.) is added to each well. Plates are then shaken for 2 minutes at room temperature to allow for cell lysis and incubated for 10 minutes at room temperature to stabilize the luminescent signal. Similar to the Kinase-Glo assay reagent from Promega, this reagent contains both luciferase enzyme and its substrate luciferin. Luciferase, activated by ATP in the cell lysate, catalyzes the conversion of luciferin to oxyluciferin, a reaction which produces light. The amount of light produced is proportionate to the amount of ATP in the cell lysate, which is itself proportional to cell number and gives an index of cellular proliferation.

Row | IC50 (DNMT1 [3]) [µM] | Structure (SMILES) | % DNMT1 protein level remaining at 5 µM (DNMT1 [1]) [%] | % DNMT1 protein level remaining at 10 µM (DNMT1 [1]) [%] | % DNMT1 protein level remaining at 100 µM (DNMT1 [1]) [%] | TD50 (CMV-EE210 cell line) [µM] | IC50 [2] [µM] | GFP Expression Level ([2]; test compound 30-50 μM, decitabine at 11 M (so in the source), three days) | melting point | toxicity relative to decitabine (CMV-EE210 cell line) | RNA expression levels of p16 (p16) | IC50 (RKO) [µM] | IC50 ([2]; dose at which the GFP expression level goes from g3 to g1/2) [µM]
1 | – | C[n+]1ccc(Nc2ccc(NC(=O)c3ccc(Nc4ccnc5ccc(N)cc45)cc3)cc2)cc1 [Cpd. L, 4-[4-({4-[(6-ammonio-4-quinolinyl)amino]benzoyl}amino)anilino]-1-methylpyridinium dichloride] | 144 | 145 | 128 | 50 | 50 | g2 (g2 positive if 30% of viable cells express GFP) | 262 to 266 °C | – | – | – | –
2 | – | CN(C)c1ccc2nccc(Nc3ccc(C(=O)Nc4ccc(Nc5cc[n+](C)cc5)cc4)cc3)c2c1 [Cpd. O, 4-[4-({4-[(6-dimethylammonio-4-quinolinyl)amino]benzoyl}amino)-anilino]-1-methylpyridinium dichloride] | 84 | 150 | 142 | 50 | 12.5 | – | 242 to 246 °C | less than one-half as toxic as decitabine | – | – | –
3 | 5.5 | O=C(Nc1ccc(SC2CCNC2)cc1)c1ccc(Nc2ccnc3ccccc23)cc1 (stereo not shown) [Cpd. EEE, 3-(4-(4-(quinolin-4-ylamino)benzamido)phenylthio)pyrrolidine] | – | – | – | – | – | – | – | – | – | – | –
4 | – | CN(C)c1ccc2nccc(Nc3ccc(C(=O)Nc4cccc(Nc5cc[n+](C)cc5)c4)cc3)c2c1 [Cpd. Q, 6-(dimethylamino)-4-[4-({3-[(1-methyl-4-pyridiniumyl)amino]anilino}carbonyl)anilino]quinolinium dichloride] | 219 | 93 | 10 | 25 | 12.5 | – | > 300 °C | less than one-half as toxic as decitabine | – | – | –
5 | – | CN(C)c1ccc2c(Nc3ccc(NC(=O)c4cccc(Nc5cc[n+](C)cc5)c4)cc3)ccnc2c1 [Cpd. CC, 7-(dimethylamino)-4-[4-({3-[(1-methyl-4-pyridiniumyl)amino]benzoyl}amino)aniline]quinolinium dichloride] | 65 | 81 | 26 | 25 | 6 | – | 188 °C (dec.) | less than one-half as toxic as decitabine | – | – | –
6 | 1.6 | O=C(Nc1ccc(SC2CNC(C(=O)O)C2)cc1)c1ccc(Nc2ccnc3ccccc23)cc1 (stereo not shown) [Cpd. DDD, 4-(4-(4-(quinolin-4-ylamino)benzamido)phenylthio)pyrrolidine-2-carboxylic acid] | – | – | – | – | – | – | – | – | – | – | –
7 | 0.31 | O=C(Nc1ccc(SC2CCCNC2)cc1)c1ccc(Nc2ccnc3ccccc23)cc1 (stereo not shown) [Cpd. GGG, N-(4-(piperidin-3-ylthio)phenyl)-4-(quinolin-4-ylamino)-benzamide] | – | – | – | – | – | – | – | – | – | – | –
8 | – | Cl.O=C(Nc1ccc(Sc2ccnc(O)c2)cc1)c1ccc(Nc2ccnc3ccccc23)cc1 [Cpd. CCC, N-[4-(2-hydroxypyridin-4-ylthio)phenyl]-4-(quinolin-4-ylamino)benzamide hydrochloride] | – | – | – | – | – | – | – | – | increase the RNA expression levels of p16 | 6.6 | –
9 | – | Cc1cc(Nc2ccc(NC(=O)c3ccc(Nc4ccnc5ccc(N(C)C)cc45)cc3)cc2)nc(N)n1.Cl [Cpd. P, N-[4-(2-amino-6-methylpyrimidin-4-ylamino)phenyl]-4-(6-(dimethylamino)quinolin-4-ylamino)benzamide hydrochloride] | 57 | 91 | 11 | 25 | – | – | 260 to 265 °C | less than one-half as toxic as decitabine | – | – | 50

— patent US7939546B2, “Quinoline derivatives for modulating DNA methylation” (SuperGen, Inc., priority 2007, dated 2011)
